Test results reported in patent publication US8785429B2, “Dihydropyrrolonaphthyridinone compounds as inhibitors of JAK” (Takeda Pharmaceutical Company Limited, priority 2009, dated 2014).

Tests used:
JAK3 = target: T1, JAK3 (Homo sapiens, UniProt P52333); experiment: Assay for JAK3 Inhibition (phosphorylation of FAM-labeled substrate, Caliper LC-3000); assay type: biochemical; settings: −log10(IC50), IC50 is the molar concentration at 50% inhibition; read-out: JAK3 pIC50 (converted)
T1 construct: purchased Invitrogen
T1 sequence (P52333 1-1124): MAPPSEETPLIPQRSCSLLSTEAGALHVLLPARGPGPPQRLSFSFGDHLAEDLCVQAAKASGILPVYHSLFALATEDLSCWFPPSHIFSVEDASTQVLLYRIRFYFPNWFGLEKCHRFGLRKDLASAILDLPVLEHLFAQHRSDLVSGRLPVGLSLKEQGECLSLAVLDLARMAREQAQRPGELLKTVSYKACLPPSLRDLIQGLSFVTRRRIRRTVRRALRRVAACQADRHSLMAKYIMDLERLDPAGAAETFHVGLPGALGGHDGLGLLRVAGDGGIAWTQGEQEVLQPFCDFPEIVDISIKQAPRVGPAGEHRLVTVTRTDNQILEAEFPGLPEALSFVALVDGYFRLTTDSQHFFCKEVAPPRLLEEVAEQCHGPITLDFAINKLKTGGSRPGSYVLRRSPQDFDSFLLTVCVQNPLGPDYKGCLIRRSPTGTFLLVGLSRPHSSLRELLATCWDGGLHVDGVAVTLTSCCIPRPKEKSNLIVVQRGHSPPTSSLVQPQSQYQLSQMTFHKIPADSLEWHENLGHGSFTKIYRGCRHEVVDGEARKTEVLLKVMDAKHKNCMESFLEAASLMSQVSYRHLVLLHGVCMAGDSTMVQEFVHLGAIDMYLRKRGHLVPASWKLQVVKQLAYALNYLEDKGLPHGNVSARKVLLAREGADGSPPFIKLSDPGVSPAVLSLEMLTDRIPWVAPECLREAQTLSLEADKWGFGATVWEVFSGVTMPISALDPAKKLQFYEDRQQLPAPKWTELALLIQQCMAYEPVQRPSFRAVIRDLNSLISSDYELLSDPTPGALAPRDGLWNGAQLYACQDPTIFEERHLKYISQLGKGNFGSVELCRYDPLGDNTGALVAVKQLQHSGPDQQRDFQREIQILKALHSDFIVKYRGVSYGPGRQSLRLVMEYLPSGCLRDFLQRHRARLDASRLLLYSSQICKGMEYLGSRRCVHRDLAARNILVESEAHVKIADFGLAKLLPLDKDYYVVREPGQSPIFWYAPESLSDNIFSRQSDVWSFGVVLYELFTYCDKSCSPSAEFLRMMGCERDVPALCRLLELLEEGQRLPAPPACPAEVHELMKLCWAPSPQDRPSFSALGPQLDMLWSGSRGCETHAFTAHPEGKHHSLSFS
Description: (§1) A compound's ability to inhibit JAK activity may be assessed using a variety of methods, including in vitro and in vivo assays. The following in vitro assays measure a test compound's ability to inhibit JAK2- and JAK3-mediated phosphorylation of FAM-labeled JAK-specific substrates.
(§2) Purified JAK2 and JAK3 proteins were purchased from Invitrogen. JAK2 and JAK3 inhibition is determined using a black 384-well-plate format in buffer containing 50 mM HEPES, 10 mM NaCl, 10 mM MgCl2, 0.2 mM EDTA, 0.01% EDA (Brij® 35), 1 mM DTT, 0.1 mg/mL BSA at pH 7.3. Each test compound is prepared in DMSO using 2-fold serial dilutions for 11 data points and is added to the buffer so that each dilution contains 3% DMSO.
(§3) To each well is added 2 μL of 3 μM 5FAM-KKKKEEIYFFFG-NH2 and 15 μM ATP (in buffer), 2 μL of diluted test compound (3% DMSO in medium), and 2 μL of 1.2 nM JAK3 in buffer. The reaction mixture is incubated at room temperature for 60 min and is quenched by adding 50 mM HEPES, 30 mM EDTA, and 0.1% Tx-100 (pH 7.3). To quantify the fluorescent-labeled substrate and product following reaction, the test plate is loaded on a Caliper LC-3000, which measures percent of conversion by microfluidic-based separation.
(§4) Corresponding IC50 values are calculated by non-linear curve fitting of the compound concentrations and percent of inhibition to the standard IC50 equation.

JAK2 = target: T2, JAK2 (Homo sapiens, UniProt O60674); experiment: Assay for JAK2 Inhibition (phosphorylation of FAM-labeled substrate, Caliper LC-3000); assay type: biochemical; settings: −log10(IC50), IC50 is the molar concentration at 50% inhibition; read-out: JAK2 pIC50 (converted)
T2 construct: purchased Invitrogen
Description: as §1, §2
as §3, with “45” for “15”, “0.6” for “1.2”, “JAK2” for “JAK3”, “HEPeX,” for “HEPES,”
as §4

T2 sequence (O60674 whole entry): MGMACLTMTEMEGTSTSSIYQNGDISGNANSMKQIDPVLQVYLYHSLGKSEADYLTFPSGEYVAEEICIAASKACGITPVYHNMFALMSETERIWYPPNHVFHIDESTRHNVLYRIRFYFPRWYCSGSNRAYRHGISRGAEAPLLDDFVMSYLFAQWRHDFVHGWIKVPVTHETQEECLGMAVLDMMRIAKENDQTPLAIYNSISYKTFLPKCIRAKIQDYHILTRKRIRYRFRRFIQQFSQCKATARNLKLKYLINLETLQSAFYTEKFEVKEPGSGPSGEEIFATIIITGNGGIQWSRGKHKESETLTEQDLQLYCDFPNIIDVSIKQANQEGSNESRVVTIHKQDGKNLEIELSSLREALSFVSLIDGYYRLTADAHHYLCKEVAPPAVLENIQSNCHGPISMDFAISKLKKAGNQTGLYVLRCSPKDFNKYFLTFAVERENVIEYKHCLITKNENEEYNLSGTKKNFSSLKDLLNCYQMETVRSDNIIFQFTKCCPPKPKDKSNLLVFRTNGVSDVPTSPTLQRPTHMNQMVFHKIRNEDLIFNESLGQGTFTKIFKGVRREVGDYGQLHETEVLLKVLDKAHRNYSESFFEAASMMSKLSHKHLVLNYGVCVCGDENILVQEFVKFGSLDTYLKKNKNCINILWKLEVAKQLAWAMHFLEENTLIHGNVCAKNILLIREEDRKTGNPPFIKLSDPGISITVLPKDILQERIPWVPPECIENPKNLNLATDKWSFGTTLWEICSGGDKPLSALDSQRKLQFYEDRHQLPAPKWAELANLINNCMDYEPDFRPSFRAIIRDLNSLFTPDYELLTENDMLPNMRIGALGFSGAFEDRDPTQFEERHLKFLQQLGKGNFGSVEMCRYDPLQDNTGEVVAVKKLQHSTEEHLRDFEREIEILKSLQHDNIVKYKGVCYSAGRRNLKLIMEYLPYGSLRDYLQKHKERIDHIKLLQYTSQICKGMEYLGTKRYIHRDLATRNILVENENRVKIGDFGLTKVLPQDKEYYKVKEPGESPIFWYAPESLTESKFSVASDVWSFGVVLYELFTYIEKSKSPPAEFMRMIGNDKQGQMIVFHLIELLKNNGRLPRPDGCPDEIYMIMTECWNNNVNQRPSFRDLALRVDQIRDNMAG

| IC50 (JAK3) [nM] | IC50 (JAK2) [nM] | Structure (SMILES) |
| --- | --- | --- |
| 501 | 10000 | CC[C@H](C(=O)NCC(C)(C)O)N1Cc2ccnc3[nH]cc(c23)C1=O [Example 70, (R)—N-(2-hydroxy-2-methylpropyl)-2-(3-oxopyrrolo[4,3,2-de][2,6]naphthyridin-4(1H,3H,5H)-yl)butanamide] |
| 2000 | 6310 | CC[C@H](C(=O)NC1CC1)N1Cc2ccnc3[nH]cc(c23)C1=O [Example 65, (R)—N-cyclopropyl-2-(3-oxopyrrolo[4,3,2-de][2,6]naphthyridin-4(1H,3H,5H)-yl)butanamide] |
| 5.01 | 126 | CC(C)[C@H](C(=O)N1CC(C#N)C1)N1Cc2ccnc3[nH]cc(c23)C1=O [Example 81, (R)-1-(3-methyl-2-(3-oxopyrrolo[4,3,2-de][2,6]naphthyridin-4(1H,3H,5H)-yl)butanoyl)azetidine-3-carbonitrile] |
| 1580 | 12600 | CC[C@H](C(=O)N1CCC(C(C)(C)O)CC1)N1Cc2ccnc3[nH]cc(c23)C1=O [Example 62, (R)-4-(1-(4-(2-hydroxypropan-2-yl)piperidin-1-yl)-1-oxobutan-2-yl)-4,5-dihydropyrrolo[4,3,2-de][2,6]naphthyridin-3(1 H)-one] |
| 1.58 | 25.1 | Cc1cnc2[nH]cc3c2c1CN([C@@H](C(=O)N1CC(C#N)C1)C(C)C)C3=O [Example 88, (R)-1-(3-methyl-2-(6-methyl-3-oxopyrrolo[4,3,2-de][2,6]naphthyridin-4(1H,3H,5H)-yl)butanoyl)azetidine-3-carbonitrile] |
| 126 | 2000 | CC[C@H](C(=O)Nc1ccccc1)N1Cc2ccnc3[nH]cc(c23)C1=O [Example 72, (R)-2-(3-oxopyrrolo[4,3,2-de][2,6]naphthyridin-4(1H,3H,5H)-yl)-N-phenylbutanamide] |
| 3980 | 10000 | CC(C)[C@H](C(=O)N(C)CCS(C)(=O)=O)N1Cc2c(F)cnc3[nH]cc(c23)C1=O [Example 78, (R)-2-(6-fluoro-3-oxopyrrolo[4,3,2-de][2,6]naphthyridin-4(1H,3H,5H)-yl)-N,3-dimethyl-N-(2-(methylsulfonyl)ethyl)butanamide] |

Second part, the molecule before the results:

| Structure (SMILES) | IC50 (JAK3) [nM] | IC50 (JAK2) [nM] |
| --- | --- | --- |
| CC[C@H](C(=O)N1CCC(N(C)C)C1)N1Cc2ccnc3[nH]cc(c23)C1=O (stereo partly drawn) [Example 59, 4-((2R)-1-(3-(dimethylamino)pyrrolidin-1-yl)-1-oxobutan-2-yl)-4,5-dihydropyrrolo[4,3,2-de][2,6]naphthyridin-3(1 H)-one] | 6310 | 20000 |
| O=C1c2c[nH]c3nccc(c23)CN1C1(C(=O)NC2CCCC2)CCCC1 [Example 31, N-cyclopentyl-1-(3-oxopyrrolo[4,3,2-de][2,6]naphthyridin-4(1H,3H,5H)-yl)cyclopentanecarboxamide] | 20000 | 20000 |
| CC(C)[C@H](C(=O)N1CCC(C#N)CC1)N1Cc2c(Cl)cnc3[nH]cc(c23)C1=O [Example 34, (R)-1-(2-(6-chloro-3-oxopyrrolo[4,3,2-de][2,6]naphthyridin-4(1H,3H,5H)-yl)-3-methylbutanoyl)piperidine-4-carbonitrile] | 15.8 | 251 |
| CC(C)C[C@H](C(=O)N1CCCC1)N1Cc2ccnc3[nH]cc(c23)C1=O [Example 21, (R)-4-(4-methyl-1-oxo-1-(pyrrolidin-1-yl)pentan-2-yl)-4,5-dihydropyrrolo[4,3,2-de][2,6]naphthyridin-3(1H)-one] | 126 | 794 |
| CC[C@H](CC#N)NC(=O)[C@@H](C(C)C)N1Cc2c(Cl)cnc3[nH]cc(c23)C1=O [Example 38, (R)-2-(6-chloro-3-oxopyrrolo[4,3,2-de][2,6]naphthyridin-4(1H,3H,5H)-yl)-N—((R)-1-cyanobutan-2-yl)-3-methylbutanamide] | 31.6 | 1000 |
| CC[C@H](C(=O)NC1CCCC1)N1Cc2ccnc3[nH]cc(c23)C1=O [Example 57, (R)—N-cyclopentyl-2-(3-oxopyrrolo[4,3,2-de][2,6]naphthyridin-4(1H,3H,5H)-yl)butanamide] | 79.4 | 1580 |
| CC(C)[C@H](C(=O)N1CC(C#N)C1)N1Cc2c(F)cnc3[nH]cc(c23)C1=O [Example 42, (R)-1-(2-(6-fluoro-3-oxopyrrolo[4,3,2-de][2,6]naphthyridin-4(1H,3H,5H)-yl)-3-methylbutanoyl)azetidine-3-carbonitrile] | 6.31 | 126 |
| CC[C@H](C(=O)N1CCC(c2ccc(F)cc2)C1)N1Cc2ccnc3[nH]cc(c23)C1=O (stereo partly drawn) [Example 58, 4-((2R)-1-(3-(4-fluorophenyl)pyrrolidin-1-yl)-1-oxobutan-2-yl)-4,5-dihydropyrrolo[4,3,2-de][2,6]naphthyridin-3(1 H)-one] | 316 | 3160 |
| CC(C)[C@H](C(=O)NC1CCS(=O)(=O)C1)N1Cc2c(F)cnc3[nH]cc(c23)C1=O (stereo partly drawn) [Example 45, (R)-2-(6-fluoro-3-oxopyrrolo[4,3,2-de][2,6]naphthyridin-4(1H,3H,5H)-yl)-3-methyl-N-(1,1-dioxidotetrahydrothien-3-yl)butanamide] | 63.1 | 2000 |
| CC(C)(C)[C@H](C(=O)NCCC#N)N1Cc2c(Cl)cnc3[nH]cc(c23)C1=O [Example 40, (R)-2-(6-chloro-3-oxopyrrolo[4,3,2-de][2,6]naphthyridin-4(1H,3H,5H)-yl)-N-(2-cyanoethyl)-3,3-dimethylbutanamide] | 50.1 | 1260 |
| CC(C)[C@H](C(=O)NC1CCOC1)N1Cc2c(F)cnc3[nH]cc(c23)C1=O (stereo partly drawn) [Example 44, (2R)-2-(6-fluoro-3-oxopyrrolo[4,3,2-de][2,6]naphthyridin-4(1H,3H,5H)-yl)-3-methyl-N-(tetrahydrofuran-3-yl)butanamide] | 126 | 1580 |
| O=C1c2ccnc3[nH]cc(c23)CN1C(CCO)C1CC1 (centres unmarked) [Example 11, 4-(1-cyclopropyl-3-hydroxypropyl)-3,4-dihydropyrrolo[4,3,2-de][2,6]naphthyridin-5(1H)-one] | 316 | 398 |
| CC(C)[C@H](C(=O)N1CC(C#N)C1)N1Cc2c(Cl)cnc3[nH]cc(c23)C1=O [Example 39, (R)-1-(2-(6-chloro-3-oxopyrrolo[4,3,2-de][2,6]naphthyridin-4(1H,3H,5H)-yl)-3-methylbutanoyl)azetidine-3-carbonitrile] | 2 | 31.6 |
| CC(C)[C@H](C(=O)N1CC(C)(C#N)C1)N1Cc2c(F)cnc3[nH]cc(c23)C1=O [Example 52, (R)-1-(2-(6-fluoro-3-oxopyrrolo[4,3,2-de][2,6]naphthyridin-4(1H,3H,5H)-yl)-3-methylbutanoyl)-3-methylazetidine-3-carbonitrile] | 10 | 200 |
| CC(C)[C@H](C(=O)N(C)CCC#N)N1Cc2c(F)cnc3[nH]cc(c23)C1=O [Example 43] | 794 | 12600 |
